| Compound | melting point |
| --- | --- |
| CCCCCCC1CCCC1 | -73 °C |
| FC(F)(F)C(I)(C(F)(F)F)C(F)(F)F | 60 °C |
| c1ccc(-c2ccc3cc4ccc(-c5ccccc5)nc4cc3n2)cc1 | 279 °C |
| O=C(Cl)c1cccc(Cl)c1Cl | 30 °C |
| S=C=Nc1ccc(N2CCOCC2)cc1 | 84 to 85 °C |
| N#CSC#N | 63.5 °C |
| O=S(=O)(Cl)c1ccc(C(F)(F)F)cc1 | 31 °C |
| Cc1cc(C)nc(Nc2ccccc2)n1 | 96.3 °C |
| COc1cc(OCc2ccccc2)ccc1C=O | 96 °C |
| Fc1cc(Br)ccc1Br | 34 °C |
| CCCCCCCCCCCCN1CCCCCC1=O | -7 °C |
| Brc1ccc(Oc2ccc(Br)c(Br)c2Br)c(Br)c1 | 119 to 121 °C |
| CCCCc1ccc(N=Cc2ccc(C=Nc3ccc(CCCC)cc3)cc2)cc1 | 232 °C |
| COc1ccc(Br)cc1CO | 68 to 73 °C |
| COC1CCC(CC(=O)O)CC1 (stereo unspecified) | 78 °C |
| Oc1ccc(F)c(F)c1F | 32 °C |
| O=C1OC(c2ccccc2)(c2ccccc2)c2ccccc21 | 120 °C |
| O=C(c1ccc([N+](=O)[O-])cc1)c1noc(-c2ccc(Br)cc2)c1S(=O)(=O)c1ccccc1 | 178 °C |
| CC(C=CC=CC(C)=CC=CC(C)=CC=C1C(C)=CC(=O)CC1(C)C)=CC=CC(C)=CC=C1C(C)=CC(=O)CC1(C)C | 219 °C |
| O=C(O)c1cc(F)c(Cl)cc1F | 153 to 158 °C |
| O=S(=O)(Cl)c1ccc(Cl)cc1Cl | 54 °C |

| Compound | melting point |
| --- | --- |
| Cn1cc(-c2ccccc2)c(=O)c(-c2cccc(C(F)(F)F)c2)c1 | 154 °C |
| CCc1nc2ccccc2[nH]1 | 175 °C |
| Oc1ccc(F)nc1 | 152 °C |
| O=C(Cl)c1ccc2c(c1)OCO2 | 80 to 81 °C |
| Nc1ccccc1-n1cccc1 | 94 to 98 °C |
| CC(C)c1cc(Br)c(N)c(Br)c1 | 46 °C |
| C#CC1(O)CCC2C3CCC4=CC(=O)CCC4C3CCC21CC (stereo unspecified) | 240 °C |
| COc1ccc2c(c1O)-c1c3c(cc4c1C(C2)N(C)CC4)OCO3 (stereo unspecified) | 200 °C |
| O=Cc1ccc(N2CCCC2)cn1 | 101 to 102 °C |
| CCOC(CCl)OCC | -45 °C |
| Cc1cc(Br)cc(C)c1N | 50 °C |
| CCC1(CC)C(=O)NCC(C)C1=O (stereo unspecified) | 76 °C |
| OCC#CCO | 56 °C |
| Nc1c(Cl)cc(C(F)(F)F)cc1Cl | 36 °C |
| Nc1ccc(C2=NN(c3ccccc3)C(=O)C2)cc1 | 160 °C |
| Nc1ccc(Nc2ccccc2)cc1 | 74 °C |
| N#Cc1cccc2ccsc12 | 67.5 to 72.5 °C |
| Cc1cc(N)ccc1[N+](=O)[O-] | 135 °C |
| COc1ccc(C(=O)OC2Cc3ccccc32)cc1 (stereo unspecified) | 124 °C |
| C1CCCCCC2OC2CCCC1 (stereo unspecified) | -7 °C |
| O=C(c1ccccc1)c1ccccc1C(=O)c1ccccc1 | 146 °C |

| Compound | melting point |
| --- | --- |
| CO[C@]1(CBr)O[C@H](COC(=O)c2ccc(C)cc2)[C@@H](OC(=O)c2ccc(C)cc2)[C@@H]1OC(=O)c1ccc(C)cc1 | 148 to 149 °C |
| NC(=O)CBr | 89 °C |
| Cc1ccc(S(=O)(=O)c2ncsc2SCc2ccc(Cl)cc2)cc1 | 151 to 153 °C |
| C[C@@]12CCC[C@@]1(O)[C@@H]1CC=C3CC(O)CC[C@]3(C)[C@H]1CC2 (stereo partly specified) | 201 to 203 °C |
| c1cc2c3c(cccc3c1)C1=NCCN=C12 | 95 °C |
| COC1C(O)C(C)OC(OC2CCC3(C)C(CCC4C3CCC3(C)C(C5=CC(=O)OC5)CCC43O)C2)C1O (stereo unspecified) | 221 °C |
| O=c1[nH]cc(Cl)cc1Cl | 180 °C |
| c1cc2c3c(ccc2c2c1CC2)CC3 | 163 °C |
| O=C(CBr)c1coc2ccccc12 | 136 to 137 °C |
| O=C(NNc1ccccc1)C1CCCCC1 | 164 °C |
| COC(=O)c1ccc(CCl)cc1 | 40 °C |
| N#C/C(=N\Nc1c(Br)cc(Br)cc1Br)c1nc2ccccc2[nH]1 | 270 °C |
| OCCc1ccc2ccccc2n1 | 103 °C |
| OCc1ccc(I)c(O)c1 | 148 °C |
| Nc1c(Cl)cc(C(F)(F)F)cc1Br | 31 °C |
| Clc1ccc(CSc2ccc(Cl)cc2)cc1 | 75 °C |
| COc1ccc(Nc2cccc(C(F)(F)F)c2)cc1 | 58 °C |
| N#Cc1c(-c2ccc(F)cc2)c(C#N)c(=O)n(N)c1N | 304 °C |
| CCCCCC(c1ccccc1)c1ccccc1 | -12 °C |
| Cc1cc(CCl)c(C)cc1CCl | 132 °C |
| c1ccc2c(Oc3cccc4ccccc34)cccc2c1 | 110 °C |

| Compound | melting point |
| --- | --- |
| N#Cc1c2ccccc2c(C#N)c2ccccc12 | 337 °C |
| O=Cc1cn(Cc2ccccc2)c2ccccc12 | 108 to 110 °C |
| O=CNc1ccc(C2=NNC(=O)CC2)cc1 | 253 to 256 °C |
| Nc1cc2[nH]c(=O)c(C(=O)c3ccccc3)cc2cc1C=O | 278 to 279 °C |
| N#C/C(=N/Nc1ccccc1[N+](=O)[O-])c1nc(-c2ccccc2)cs1 | 210 °C |
| N#Cc1c(-c2ccc(Br)cc2)cc2c(C#N)c(=N)n(C(=O)c3ccc(Cl)cc3)n2c1N | 190 °C |
| COc1cc2oc(=O)cc(CBr)c2cc1OC | 202 °C |
| O=CN(O)CC(=O)O | 120 °C |
| BrCc1ccc(-n2cccc2)cc1 | 86 to 91 °C |
| OCc1ccc(N2CCCCC2)cc1 | 148 to 149 °C |
| N#Cc1ccc(N)c(C(F)(F)F)c1 | 62 °C |
| COc1cc(F)c(C#N)cc1F | 91 °C |
| OC1CCCCCC1 | 2 °C |
| O=C(c1ccc(Cl)cc1)c1cc2c(cc1Br)OCCO2 | 129 to 130 °C |
| Cc1cc(Br)c(N)c([N+](=O)[O-])c1 | 58 to 59 °C |
| COC(=O)C1(O)c2ccccc2-c2ccc(Cl)cc21 (stereo unspecified) | 155 °C |
| N#Cc1cccnc1N1CCNCC1 | 76 to 78 °C |
| C=CCC1=C(C)C(OC(=O)C2C(C=C(C)C)C2(C)C)CC1=O (stereo unspecified) | 4 °C |
| COc1ccc(C=CC(=O)c2cccc(C(=O)C=Cc3ccc(OC)cc3)c2)cc1 | 135 °C |
| CCCCCCCCCCCCOc1ccc(C=O)cc1 | 28 °C |
| Cc1c2ccccc2c(C)c2ccccc12 | 183 °C |

Next, values leading:

| melting point | Compound |
| --- | --- |
| 128 °C | CC(Br)C(Br)c1nc(O)n(-c2ccccc2)n1 (stereo unspecified) |
| 49 to 53 °C | CCOC(=O)[C@H]1CCC(=O)N1 |
| 185 to 189 °C | Cc1nc(N)ccc1[N+](=O)[O-] |
| 132 to 135 °C | CCN(CC)c1cc(Cl)c2nonc2c1[N+](=O)[O-] |
| 100 to 101 °C | CCOC(=O)c1cnc2cc(C)nn2c1C |
| 150 to 153 °C | C=CCn1c(S)nnc1CNC(=O)OC(C)(C)C |
| 31 °C | O=S(=O)(Cl)c1ccccc1OC(F)(F)F |
| 86 to 87 °C | COc1ccc(C(=O)/C=C(\C)c2ccc(OC)cc2)cc1 |
| 89 to 90 °C | CC(=O)N1CC(C)=CC1=O |
| 148 to 150 °C | NC(=S)Nc1ccccn1 |
| 148 °C | COc1ccccc1N/N=C1\C(=O)N(CN2CCCCC2)N=C1C |
| 72.5 °C | N#CCC(=O)N1CCCC1 |
| 118 °C | CCOc1ccc(-c2nnc3n2NC(c2ccccc2)S3)cc1 (stereo unspecified) |
| 225 to 228 °C | CC(C)S(=O)(=O)c1cnc(-c2cccnc2)nc1N |
| 79 to 82 °C | COc1c(C(=O)Cl)csc1Br |
| 240 to 242 °C | Cn1ccc(-c2ccc(C(=O)O)cc2)n1 |
| 220 °C | COc1ccc(C(=O)O)cc1Br |
| 188 to 190 °C | CC(=O)Nc1ccccc1CCN(CCc1ccccc1NC(C)=O)C(C)=O |
| 148 to 149 °C | O=C(Nc1ccc(Cl)cc1)c1cccnc1Cl |
| 315 °C | O=C(O)c1ccncc1 |
| 155 °C | CCCCCN=C(N)NNC=C1C=Nc2ccc(CO)cc21 |
| 239 °C | O=Nc1c(-c2cccs2)nc2ncccn12 |
| 71 to 72 °C | CC(C)(C)OC(=O)NCc1ccsc1Br |
| 139 °C | NNC(=O)c1cccs1 |

| melting point | Compound |
| --- | --- |
| 133 °C | CCCCCCCCc1ccc(NC(=O)Oc2ccc(OC)cc2)cc1 |
| 225 °C | CC1=C(C(=O)OC(C)C)C(c2cccc([N+](=O)[O-])c2)NC(=S)N1 (stereo unspecified) |
| 203 °C | NC(=O)CN1Cc2ccccc2OC1=O |
| 129 °C | Cc1ccc(C(=O)CCC(=O)O)cc1 |
| < 25 °C | CC(=O)C=CC1C(C)=CCCC1(C)C (stereo unspecified) |
| 39 to 41 °C | CCCCCCNC(=S)NCCCCCC |
| 174 °C | CCOc1ccc(-c2ccc(OCC)cc2)cc1 |
| 119 °C | O=C(NCCO)C1CCCNC1 (stereo unspecified) |
| 115 °C | CSCCC(NC(C)=O)C(=O)O (racemic) |
| 56 °C | CC(=O)Oc1ccccc1/C=C/c1ccccc1 |
| 100 to 101 °C | NNc1nccc(C(F)(F)F)n1 |
| 194 °C | COC1C(OC(=O)C=CC=CC=CC=CC(=O)O)CCC2(CO2)C1C1(C)OC1CC=C(C)C (stereo unspecified) |
| 169 to 171 °C | CC(C)(CCCC(C)(C)C(=O)O)C(=O)O |
| 136 °C | CC(OC(=O)Nc1ccccc1)c1cccc(C(C)OC(=O)Nc2ccccc2)c1 (stereo unspecified) |
| 149 to 150 °C | Cc1nc(Br)sc1C(=O)O |
| 82 to 84 °C | Cc1nc(-c2ccc(C(F)(F)F)cc2)sc1C(=O)CBr |
| 176 °C | COc1ccc(CC(N)C(=O)NC2C(CO)OC(n3cnc4c(N(C)C)ncnc43)C2O)cc1 (stereo unspecified) |
| 175 °C | COC(=O)c1ccc(C(=O)O)cc1[N+](=O)[O-] |
| 168 to 170 °C | CCNc1cc2oc(=O)cc(C)c2cc1C |
| 139 °C | CC(=O)Nc1ccc(C(C)=O)c(C)c1 |
| 128 to 129 °C | CC(=O)NCCCCCCNC(C)=O |
| 196 to 198 °C | CC(C)(C)S(=O)(=O)c1cnc(N2CCOCC2)nc1N |
| 19 °C | CCCCc1cc(C)ccc1O |

Reference: a melting point compilation (Tetko et al.)
